Results published in the kinase profiling compilation of Christmann-Franck et al. (2016).

Assays:
Experiment in all cases: KINOMEscan competition binding
Details in all cases: compound 10.0 µM
FRK (human) = FRK (human) (UniProt P42685)
MAP3K5 (human) = MAP3K5 (human) (UniProt Q99683)
STK25 (human) = STK25 (human) (UniProt O00506)
RPS6KA6 KD2 (human) = RPS6KA6 KD2 (human) (UniProt Q9UK32)
EPHA5 (human) = EPHA5 (human) (UniProt P54756)
STK10 (human) = STK10 (human) (UniProt O94804)
MAPK1 (human) = MAPK1 (human) (UniProt P28482)
MINK1 (human) = MINK1 (human) (UniProt Q8N4C8)
MAP4K4 (human) = MAP4K4 (human) (UniProt O95819)
PAK6 (human) = PAK6 (human) (UniProt Q9NQU5)
RIOK1 (human) = RIOK1 (human) (UniProt Q9BRS2)
EPHA4 (human) = EPHA4 (human) (UniProt P54764)
PAK1 (human) = PAK1 (human) (UniProt Q13153)
DAPK2 (human) = DAPK2 (human) (UniProt Q9UIK4)
TXK (human) = TXK (human) (UniProt P42681)
CDK3 (human) = CDK3 (human) (UniProt Q00526)
MAPK4 (human) = MAPK4 (human) (UniProt P31152)
DAPK1 (human) = DAPK1 (human) (UniProt P53355)
CIT (human) = CIT (human) (UniProt O14578)
LATS2 (human) = LATS2 (human) (UniProt Q9NRM7)
TGFBR2 (human) = TGFBR2 (human) (UniProt P37173)
MAPK9 (human) = MAPK9 (human) (UniProt P45984)
PRKD1 (human) = PRKD1 (human) (UniProt Q15139)
LTK (human) = LTK (human) (UniProt P29376)
CDC2L2 (human) = CDC2L2 (human) (UniProt Q9UQ88)
CSNK1G3 (human) = CSNK1G3 (human) (UniProt Q9Y6M4)
RPS6KA3 KD1 (human) = RPS6KA3 KD1 (human) (UniProt P51812)
ADCK3 (human) = ADCK3 (human) (UniProt Q8NI60)
ACVR2B (human) = ACVR2B (human) (UniProt Q13705)
TNK1 (human) = TNK1 (human) (UniProt Q13470)
RIPK4 (human) = RIPK4 (human) (UniProt P57078)
STK32B (human) = STK32B (human) (UniProt Q9NY57)
RIOK3 (human) = RIOK3 (human) (UniProt O14730)
CSNK1G1 (human) = CSNK1G1 (human) (UniProt Q9HCP0)
CAMK2G (human) = CAMK2G (human) (UniProt Q13555)
MAP3K11 (human) = MAP3K11 (human) (UniProt Q16584)
CHEK2 (human) = CHEK2 (human) (UniProt O96017)
CDK9 (human) = CDK9 (human) (UniProt P50750)
[1] = molecular target: JAK1 JH1 catalytic (human) (UniProt P23458)
PTK2B (human) = PTK2B (human) (UniProt Q14289)

Measured: kinase still bound, per cent of control

CSNK1G3 (human), sequence (Q9Y6M4 whole entry, looked up): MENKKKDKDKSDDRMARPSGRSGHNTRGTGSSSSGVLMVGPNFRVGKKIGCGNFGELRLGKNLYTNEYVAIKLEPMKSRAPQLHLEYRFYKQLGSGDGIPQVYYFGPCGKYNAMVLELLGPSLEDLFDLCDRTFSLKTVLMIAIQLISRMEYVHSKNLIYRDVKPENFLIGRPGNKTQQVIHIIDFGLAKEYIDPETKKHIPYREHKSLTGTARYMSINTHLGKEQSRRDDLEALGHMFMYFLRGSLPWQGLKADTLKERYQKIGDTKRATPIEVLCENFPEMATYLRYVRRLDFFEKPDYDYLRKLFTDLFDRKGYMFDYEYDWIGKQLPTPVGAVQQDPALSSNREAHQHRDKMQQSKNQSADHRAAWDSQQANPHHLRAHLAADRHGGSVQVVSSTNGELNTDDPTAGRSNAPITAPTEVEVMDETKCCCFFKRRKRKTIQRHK
MAPK1 (human), sequence (P28482 whole entry, looked up): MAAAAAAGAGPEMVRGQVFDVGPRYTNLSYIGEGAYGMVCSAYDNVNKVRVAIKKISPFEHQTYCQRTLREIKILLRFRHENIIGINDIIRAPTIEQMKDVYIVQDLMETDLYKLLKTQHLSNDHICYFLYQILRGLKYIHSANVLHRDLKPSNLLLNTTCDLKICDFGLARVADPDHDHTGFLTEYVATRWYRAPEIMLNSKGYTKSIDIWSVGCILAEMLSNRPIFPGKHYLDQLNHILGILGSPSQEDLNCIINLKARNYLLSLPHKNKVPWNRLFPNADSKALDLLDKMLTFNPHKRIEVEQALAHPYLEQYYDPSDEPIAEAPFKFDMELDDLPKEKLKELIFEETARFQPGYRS
TXK (human), sequence (P42681 whole entry, looked up): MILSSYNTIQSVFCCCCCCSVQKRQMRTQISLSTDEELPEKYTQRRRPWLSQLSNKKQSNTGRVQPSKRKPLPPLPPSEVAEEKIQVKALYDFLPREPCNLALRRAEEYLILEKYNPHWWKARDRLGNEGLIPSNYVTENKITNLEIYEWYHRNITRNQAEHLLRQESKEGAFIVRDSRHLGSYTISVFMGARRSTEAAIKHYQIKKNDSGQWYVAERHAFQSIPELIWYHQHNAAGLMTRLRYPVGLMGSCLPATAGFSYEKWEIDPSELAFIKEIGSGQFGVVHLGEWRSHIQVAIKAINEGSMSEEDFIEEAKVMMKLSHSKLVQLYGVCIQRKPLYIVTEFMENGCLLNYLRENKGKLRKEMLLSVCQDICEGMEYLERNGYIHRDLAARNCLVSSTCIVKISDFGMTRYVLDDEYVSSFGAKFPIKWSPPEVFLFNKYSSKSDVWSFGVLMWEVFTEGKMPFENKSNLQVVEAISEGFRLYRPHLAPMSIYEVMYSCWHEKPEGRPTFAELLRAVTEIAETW
MAP4K4 (human), sequence (O95819 whole entry, looked up): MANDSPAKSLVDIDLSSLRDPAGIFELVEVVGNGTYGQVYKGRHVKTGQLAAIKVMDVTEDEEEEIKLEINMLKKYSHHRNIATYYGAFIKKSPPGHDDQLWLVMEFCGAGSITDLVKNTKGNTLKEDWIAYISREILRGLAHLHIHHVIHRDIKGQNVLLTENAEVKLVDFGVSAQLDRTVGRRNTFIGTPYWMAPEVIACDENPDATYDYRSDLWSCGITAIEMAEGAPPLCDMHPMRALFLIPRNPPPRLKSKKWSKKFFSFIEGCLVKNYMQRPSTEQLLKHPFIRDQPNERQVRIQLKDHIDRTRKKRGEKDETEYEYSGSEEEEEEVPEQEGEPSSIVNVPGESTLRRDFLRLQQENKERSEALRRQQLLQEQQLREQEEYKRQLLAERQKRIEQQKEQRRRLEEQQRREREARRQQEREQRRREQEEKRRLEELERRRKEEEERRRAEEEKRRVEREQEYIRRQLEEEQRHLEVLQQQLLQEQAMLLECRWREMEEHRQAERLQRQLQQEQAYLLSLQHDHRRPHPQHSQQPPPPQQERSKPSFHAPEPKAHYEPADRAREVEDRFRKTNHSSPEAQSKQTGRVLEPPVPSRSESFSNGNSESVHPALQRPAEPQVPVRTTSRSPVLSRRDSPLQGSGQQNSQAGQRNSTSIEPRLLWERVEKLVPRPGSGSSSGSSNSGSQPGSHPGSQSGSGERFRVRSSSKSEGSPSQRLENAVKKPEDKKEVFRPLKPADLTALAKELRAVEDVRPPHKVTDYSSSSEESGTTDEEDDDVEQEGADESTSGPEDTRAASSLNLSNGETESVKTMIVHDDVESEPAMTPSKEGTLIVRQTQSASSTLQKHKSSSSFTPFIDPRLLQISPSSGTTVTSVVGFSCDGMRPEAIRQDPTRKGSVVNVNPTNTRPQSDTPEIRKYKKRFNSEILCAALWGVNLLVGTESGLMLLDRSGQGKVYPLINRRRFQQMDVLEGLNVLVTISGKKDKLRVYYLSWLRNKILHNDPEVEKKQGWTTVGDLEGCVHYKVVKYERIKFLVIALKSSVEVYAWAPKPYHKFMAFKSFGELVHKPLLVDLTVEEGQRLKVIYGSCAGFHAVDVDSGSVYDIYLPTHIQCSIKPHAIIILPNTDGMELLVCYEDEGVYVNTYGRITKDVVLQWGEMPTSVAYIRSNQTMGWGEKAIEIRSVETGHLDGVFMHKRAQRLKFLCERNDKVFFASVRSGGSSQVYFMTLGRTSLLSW
CAMK2G (human), sequence (Q13555 whole entry, looked up): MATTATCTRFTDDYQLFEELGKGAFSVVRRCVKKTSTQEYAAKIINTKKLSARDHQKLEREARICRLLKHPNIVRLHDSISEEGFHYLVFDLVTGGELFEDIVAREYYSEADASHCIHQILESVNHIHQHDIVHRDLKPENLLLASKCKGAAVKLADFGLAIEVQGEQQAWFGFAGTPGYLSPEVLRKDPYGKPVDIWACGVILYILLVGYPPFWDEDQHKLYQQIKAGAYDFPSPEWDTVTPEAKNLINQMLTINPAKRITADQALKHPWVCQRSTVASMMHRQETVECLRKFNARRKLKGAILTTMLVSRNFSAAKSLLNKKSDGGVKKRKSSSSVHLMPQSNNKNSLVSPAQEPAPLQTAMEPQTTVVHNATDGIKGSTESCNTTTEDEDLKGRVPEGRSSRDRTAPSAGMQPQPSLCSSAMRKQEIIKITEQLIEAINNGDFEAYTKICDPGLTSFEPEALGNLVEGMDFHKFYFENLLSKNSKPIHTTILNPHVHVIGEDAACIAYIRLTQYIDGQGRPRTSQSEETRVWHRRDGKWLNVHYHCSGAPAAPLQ
RIOK3 (human), sequence (O14730 whole entry, looked up): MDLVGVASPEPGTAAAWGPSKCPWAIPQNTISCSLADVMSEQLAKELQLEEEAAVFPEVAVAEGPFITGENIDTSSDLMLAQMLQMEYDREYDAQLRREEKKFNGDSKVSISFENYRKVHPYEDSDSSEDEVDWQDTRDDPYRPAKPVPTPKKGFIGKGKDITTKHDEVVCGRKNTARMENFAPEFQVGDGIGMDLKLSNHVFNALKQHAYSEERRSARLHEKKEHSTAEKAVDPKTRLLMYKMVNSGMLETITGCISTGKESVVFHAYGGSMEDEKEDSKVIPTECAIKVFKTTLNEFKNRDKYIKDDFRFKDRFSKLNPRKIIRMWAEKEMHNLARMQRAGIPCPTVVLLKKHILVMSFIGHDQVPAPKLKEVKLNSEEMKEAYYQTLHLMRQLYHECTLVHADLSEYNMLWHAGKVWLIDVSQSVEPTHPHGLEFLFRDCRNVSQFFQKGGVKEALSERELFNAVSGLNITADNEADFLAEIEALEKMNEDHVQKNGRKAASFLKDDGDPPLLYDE
RPS6KA3 KD1 (human), sequence (P51812 whole entry, looked up): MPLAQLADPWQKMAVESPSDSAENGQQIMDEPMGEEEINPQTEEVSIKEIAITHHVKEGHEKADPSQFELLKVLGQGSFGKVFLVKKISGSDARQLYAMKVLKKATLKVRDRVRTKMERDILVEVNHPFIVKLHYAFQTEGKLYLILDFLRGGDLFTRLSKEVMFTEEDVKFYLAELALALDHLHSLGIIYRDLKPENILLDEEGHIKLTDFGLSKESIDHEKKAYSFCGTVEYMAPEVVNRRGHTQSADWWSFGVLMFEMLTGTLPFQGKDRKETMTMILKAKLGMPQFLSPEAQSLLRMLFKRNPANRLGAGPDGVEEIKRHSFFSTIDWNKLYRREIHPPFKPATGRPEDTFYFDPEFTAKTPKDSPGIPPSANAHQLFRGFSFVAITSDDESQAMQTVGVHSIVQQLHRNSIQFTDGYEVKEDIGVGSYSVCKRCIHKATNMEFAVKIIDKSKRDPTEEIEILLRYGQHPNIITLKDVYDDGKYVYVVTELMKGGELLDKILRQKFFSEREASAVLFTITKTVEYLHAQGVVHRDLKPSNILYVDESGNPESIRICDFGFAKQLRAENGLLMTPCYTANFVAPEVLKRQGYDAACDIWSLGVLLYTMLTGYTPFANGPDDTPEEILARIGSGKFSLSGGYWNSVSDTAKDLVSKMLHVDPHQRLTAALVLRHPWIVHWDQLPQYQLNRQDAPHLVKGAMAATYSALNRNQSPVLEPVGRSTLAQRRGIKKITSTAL
MAPK4 (human), sequence (P31152 whole entry, looked up): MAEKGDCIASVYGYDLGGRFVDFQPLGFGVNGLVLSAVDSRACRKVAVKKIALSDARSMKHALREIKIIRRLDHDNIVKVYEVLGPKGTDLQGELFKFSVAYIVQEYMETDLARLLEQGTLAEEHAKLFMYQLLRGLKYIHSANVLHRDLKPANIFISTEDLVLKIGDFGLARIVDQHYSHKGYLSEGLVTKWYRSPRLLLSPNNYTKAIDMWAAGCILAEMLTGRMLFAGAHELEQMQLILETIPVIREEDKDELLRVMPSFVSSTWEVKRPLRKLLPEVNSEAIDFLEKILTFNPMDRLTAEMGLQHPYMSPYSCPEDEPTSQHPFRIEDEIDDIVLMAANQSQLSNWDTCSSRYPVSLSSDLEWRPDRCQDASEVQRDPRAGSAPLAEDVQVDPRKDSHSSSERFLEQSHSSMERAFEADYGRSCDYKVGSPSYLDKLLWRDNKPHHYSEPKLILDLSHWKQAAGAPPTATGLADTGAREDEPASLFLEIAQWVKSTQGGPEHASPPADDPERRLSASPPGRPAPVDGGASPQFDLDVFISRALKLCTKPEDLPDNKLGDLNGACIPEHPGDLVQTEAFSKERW

COc1cc(C(=O)NC2CCN(C)CC2)ccc1Nc1ncc2c(n1)N(C1CCCC1)CCC(=O)N2C(C)C
100%: all assays above
